According to patent publication US20250154173A1 (Merck Sharp & Dohme LLC, priority 2023, published 2025):

Target: T1, GST-RIPK1 (recombinant GST-RIPK1 kinase domain (residues 1-327)) (Homo sapiens, UniProt Q13546)
T1 construct: recombinant GST-RIPK1 kinase domain (residues 1-327) enzyme produced from baculovirus-transfected Sf21 cells; host or cells: baculovirus-transfected Sf21 insect cells
T1 sequence (Q13546 1-327): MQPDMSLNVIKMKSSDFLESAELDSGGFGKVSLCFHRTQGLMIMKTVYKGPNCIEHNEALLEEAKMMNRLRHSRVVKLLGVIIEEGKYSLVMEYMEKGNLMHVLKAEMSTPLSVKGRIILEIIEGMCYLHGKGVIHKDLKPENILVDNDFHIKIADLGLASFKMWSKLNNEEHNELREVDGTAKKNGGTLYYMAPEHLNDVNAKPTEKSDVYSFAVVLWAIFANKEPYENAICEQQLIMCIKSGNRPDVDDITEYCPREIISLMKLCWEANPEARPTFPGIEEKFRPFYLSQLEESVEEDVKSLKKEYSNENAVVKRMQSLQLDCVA
Experiment: RIPK1-ADP-Glo Enzymatic Assay
Type: biochemical
Conditions: ten-point titration, top compound concentration of 100000 nM; 25 nM GST-RIPK1, 300 μM ATP, 3 μM dephosphorylated-MBP; 30 min pre-incubation, 150 min reaction
Description: RIPK1-ADP-Glo Enzymatic Assay
The enzymatic activity of RIPK1 is measured using an assay derived from ADP-Glo kit (TMPromega), which provides a luminescent-based ADP detection system. Specifically, the ADP generated by RIPK1 kinase is proportionally detected as luminescent signals in a homogenous fashion. In this context, the assessment of the inhibitory effect of small molecules (EC50) is measured by the effectiveness of the compounds to inhibit the ATP to ADP conversion by RIPK1.
In this assay, the potency (EC50) of each compound was determined from a ten-point (1:3 serial dilution; top compound concentration of 100000 nM) titration curve using the following outlined procedure. To each well of a white ProxiPlus 384 well-plate, 30 nL of compound (1% DMSO in final assay volume of 3 μL) was dispensed, followed by the addition of 2 μL of 1× assay buffer (25 mM Hepes 7.3, 20 mM MgCl2, 50 mM NaCl, 1 mM DTT, 0.005% Tween20, and 0.02% BSA) containing 37.5 nM of GST-RIPK1 (recombinant GST-RIPK1 kinase domain (residues 1-327) enzyme produced from baculovirus-transfected Sf21 cells: MW=62 kDa). Plates were placed in an ambient temperature humidified chamber for a 30 minutes pre-incubation with compound. Subsequently, each reaction was initiated by the addition of 1 μL 1× assay buffer containing 900 μM ATP and 3 μM dephosphorylated-MBP substrate. The final reaction in each well of 3 μL consists of 25 nM of GST-RIPK1, 300 μM ATP, and 3 μM dephosphorylated-MBP. Kinase reactions were allowed to proceed for 150 minutes prior to adding ADP-Glo reagents per Promega's outlined kit protocol. Dose-response curves were generated by plotting percent effect (% product conversion; Y-axis) vs. Log 10 compound concentrations (X-axis). EC50 values were calculated using a non-linear regression, four-parameters sigmoidal dose-response model.

Compound	EC50 [nM]
N#Cc1cc(O[C@H]2C[C@@]3(C2)O[C@@H]2CC[C@@H](c4cc(F)cc(F)c4)N2C3=O)ncn1 [Example 9.2, 6-(((5′S,7a′R)-5′-(3,5-difluorophenyl)-3′-oxotetrahydro-3′H-spiro[cyclobutane-1,2′-pyrrolo[2,1-b]oxazol]-3-yl)oxy)pyrimidine-4-carbonitrile]	16
N#Cc1ccc(F)c(OC2CC3(C2)O[C@@H]2CC[C@@H](c4ccccc4)N2C3=O)c1 (stereo partly drawn) [Example 8.3, 4-fluoro-3-{[(5′S,7a′R)-3′-oxo-5′-phenyltetrahydro-3′H-spiro[cyclobutane-1,2′-pyrrolo[2,1-b][1,3]oxazol]-3-yl]oxy}benzonitrile]	20
O=C1N2[C@@H](CC[C@H]2c2cnccn2)O[C@]12C[C@H](Oc1ccc(F)cc1F)C2 [Example 7.1, (1r,3R,5′S,7a′R)-3-(2,4-difluorophenoxy)-5′-(pyrazin-2-yl)tetrahydro-3′H-spiro[cyclobutane-1,2′-pyrrolo[2,1-b]oxazol]-3′-one]	20
Cn1cc(C2CC[C@H]3OC4(CC(Oc5cc(C#N)ncn5)C4)C(=O)N23)cn1 (single isomer, unassigned) [Example 6.3, 6-((((1r or s),3R,5′(R or S),7a′R)-5′-(1-methyl-1H-pyrazol-4-yl)-3′-oxotetrahydro-3′H-spiro[cyclobutane-1,2′-pyrrolo[2,1-b]oxazol]-3-yl)oxy)pyrimidine-4-carbonitrile]	129
O=C1N2[C@@H](CC[C@H]2c2cc(F)cc(F)c2)OC12CC(Oc1ccnc3c(F)cnn13)C2 (single isomer, unassigned) [Example 9.4]	105
O=C1N2[C@@H](CC[C@H]2c2ccccc2)OC12CC(Oc1cccc3sncc13)C2 (stereo partly drawn) [Example 8.12, (5′S,7a′R)-3-[(1,2-benzothiazol-4-yl)oxy]-5′-phenyltetrahydro-3′H-spiro[cyclobutane-1,2′-pyrrolo[2,1-b][1,3]oxazol]-3′-one]	20
N#Cc1cc(O[C@H]2C[C@@]3(C2)O[C@@H]2CC[C@@H](c4cnccn4)N2C3=O)ncn1 [Example 9.42, 6-(((5′S,7a′R)-3′-oxo-5′-(pyrazin-2-yl)tetrahydro-3′H-spiro[cyclobutane-1,2′-pyrrolo[2,1-b]oxazol]-3-yl)oxy)pyrimidine-4-carbonitrile]	21
N#Cc1cncc(O[C@H]2C[C@@]3(C2)O[C@@H]2CC[C@@H](c4ccc(F)cc4)N2C3=O)c1 [Example 9.49, 5-{[(1r,3R,5′S,7a′R)-5′-(4-fluorophenyl)-3′-oxotetrahydro-3′H-spiro[cyclobutane-1,2′-pyrrolo[2,1-b][1,3]oxazol]-3-yl]oxy}pyridine-3-carbonitrile]	15
Cn1ccc([C@@H]2CC[C@H]3OC4(CC(Oc5cnccn5)C4)C(=O)N32)n1 (stereo partly drawn) [Example 9.64, (5′S,7a′R)-5′-(1-methyl-1H-pyrazol-3-yl)-3-[(pyrazin-2-yl)oxy]tetrahydro-3′H-spiro[cyclobutane-1,2′-pyrrolo[2,1-b][1,3]oxazol]-3′-one]	124
N#Cc1cncc(O[C@H]2C[C@@]3(C2)O[C@@H]2CC[C@@H](c4ccccc4)N2C3=O)n1 [Example 9.16, 6-{[(1r,3R,5′S,7a′R)-3′-oxo-5′-phenyltetrahydro-3′H-spiro[cyclobutane-1,2′-pyrrolo[2,1-b][1,3]oxazol]-3-yl]oxy}pyrazine-2-carbonitrile]	78

The remaining lines, values ahead:

EC50 [nM]	Compound
155	C[C@@H](OC1CC2(C1)O[C@@H]1CC[C@@H](c3cc(F)cc(F)c3)N1C2=O)c1ccc(F)cn1 (single isomer, unassigned) [Example 12.2, (1R,3R,5′S,7a′R)-5′-(3,5-difluorophenyl)-3-((S or R)-1-(5-fluoropyridin-2-yl)ethoxy)tetrahydro-3′H-spiro[cyclobutene-1,2′-pyrrolo[2,1-b]oxazol]-3′-one]
182	O=C1N2C(CC[C@H]2c2cnccn2)OC12CC(OCc1cccc3nccn13)C2 (stereo partly drawn) [Example 18.84, (5′S)-3-[(imidazo[1,2-a]pyridin-5-yl)methoxy]-5′-(pyrazin-2-yl)tetrahydro-3′H-spiro[cyclobutane-1,2′-pyrrolo[2,1-b][1,3]oxazol]-3′-one]
53	COc1ccc2cc(COC3CC4(C3)OC3CC[C@@H](c5cnccn5)N3C4=O)cc(C)c2n1 (stereo partly drawn) [Example 18.41, (5′S)-3-[(2-methoxy-8-methylquinolin-6-yl)methoxy]-5′-(pyrazin-2-yl)tetrahydro-3′H-spiro[cyclobutane-1,2′-pyrrolo[2,1-b][1,3]oxazol]-3′-one]
569	O=C1N2C(CC[C@H]2c2cnccn2)OC12CC(OCc1ccc(OC3CCOCC3)nc1)C2 (stereo partly drawn) [Example 18.106, (5′S)-3-({6-[(oxan-4-yl)oxy]pyridin-3-yl}methoxy)-5′-(pyrazin-2-yl)tetrahydro-3′H-spiro[cyclobutane-1,2′-pyrrolo[2,1-b][1,3]oxazol]-3′-one]
18	NC(=O)c1ccnc(O[C@H]2C[C@@]3(C2)O[C@@H]2CC[C@@H](c4cc(F)cc(F)c4)N2C3=O)c1 [Example 10.2, 2-(((1r,3R,5′S,7a′R)-5′-(3,5-difluorophenyl)-3′-oxotetrahydro-3′H-spiro[cyclobutane-1,2′-pyrrolo[2,1-b]oxazol]-3-yl)oxy)isonicotinamide]
577	O=C1N2[C@@H](CC[C@H]2c2cnccn2)OC12CC(OCC1CCC1)C2 (single isomer, unassigned) [Example 23.2, (5′S,7a′R)-3-(cyclobutylmethoxy)-5′-(pyrazin-2-yl)tetrahydro-3′H-spiro[cyclobutane-1,2′-pyrrolo[2,1-b]oxazol]-3′-one]
94	O=C1N2C(CC[C@H]2c2cnccn2)OC12CC(OCc1ccc3c(c1)CCO3)C2 (stereo partly drawn) [Example 18.108, (5′S)-3-((2,3-dihydrobenzofuran-5-yl)methoxy)-5′-(pyrazin-2-yl)tetrahydro-3′H-spiro[cyclobutane-1,2′-pyrrolo[2,1-b]oxazol]-3′-one]
780	O=C1N2C(CC[C@H]2c2cnccn2)OC12CC(OCc1cnc3c(c1)CCCC3)C2 (stereo partly drawn) [Example 18.90, (5′S)-5′-(pyrazin-2-yl)-3-[(5,6,7,8-tetrahydroquinolin-3-yl)methoxy]tetrahydro-3′H-spiro[cyclobutane-1,2′-pyrrolo[2,1-b][1,3]oxazol]-3′-one]
307	Cn1cc(COC2CC3(C2)OC2CC[C@@H](c4cnccn4)N2C3=O)cn1 (stereo partly drawn) [Example 18.5, (5′S)-3-[(1-methyl-1H-pyrazol-4-yl)methoxy]-5′-(pyrazin-2-yl)tetrahydro-3′H-spiro[cyclobutane-1,2′-pyrrolo[2,1-b][1,3]oxazol]-3′-one]
11	O=C1N2[C@@H](CC[C@H]2c2cc(F)cc(F)c2)O[C@]12C[C@H](Oc1cc(-c3nn[nH]n3)ccn1)C2 [Example 10.3, (1r,3R,5′S,7a′R)-3-((4-(2H-tetrazol-5-yl)pyridin-2-yl)oxy)-5′-(3,5-difluorophenyl)tetrahydro-3′H-spiro[cyclobutane-1,2′-pyrrolo[2,1-b]oxazol]-3′-one]
65	COCCOc1ccc(COC2CC3(C2)OC2CC[C@@H](c4cnccn4)N2C3=O)cc1 (stereo partly drawn) [Example 18.50, (5′S)-3-{[4-(2-methoxyethoxy)phenyl]methoxy}-5′-(pyrazin-2-yl)tetrahydro-3′H-spiro[cyclobutane-1,2′-pyrrolo[2,1-b][1,3]oxazol]-3′-one]
239	CC(OC1CC2(C1)O[C@@H]1CC[C@@H](c3cc(F)cc(F)c3)N1C2=O)c1ncccc1F (single isomer, unassigned) [Example 12.3, (1R or S,3R or S,5′S,7a′R)-5′-(3,5-difluorophenyl)-3-((R or S)-1-(3-fluoropyridin-2-yl)ethoxy)tetrahydro-3′H-spiro[cyclobutane-1,2′-pyrrolo[2,1-b]oxazol]-3′-one]
60	N#CCCc1ccc(COC2CC3(C2)OC2CC[C@@H](c4cnccn4)N2C3=O)cc1 (stereo partly drawn) [Example 18.47, 3-[4-({[(5′S)-3′-oxo-5′-(pyrazin-2-yl)tetrahydro-3′H-spiro[cyclobutane-1,2′-pyrrolo[2,1-b][1,3]oxazol]-3-yl]oxy}methyl)phenyl]propanenitrile]
